Measured values from ChEMBL document CHEMBL1201862, “PubChem BioAssay data set” (2004).
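Where inhibition never reached the appropriate level, the endpoint shown equals the highest concentration tested. Otherwise, values were interpolated linearly from a five-concentration, 48-hour dose response in 96-well plates. Abbreviation: GI50, concentration required for 50% inhibition of growth.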 Active and inactive are the calls of the source. Cut-off read from the data, not from the text of the source: active = GI50 up to about 1.1 µM and inactive = higher.

How the values were obtained:
Experiment in all cases: DTP human tumour cell line panel, 48 h
OVCAR-8 = test system: OVCAR-8
LOX IMVI = test system: LOX IMVI
NCI-H23 = test system: NCI-H23
RPMI-8226 = test system: RPMI-8226
TK-10 = test system: TK-10
NCI-H226 = test system: NCI-H226
Malme-3M = test system: Malme-3M
MOLT-4 = test system: MOLT-4
SK-OV-3 = test system: SK-OV-3
CCRF-CEM = test system: CCRF-CEM
SNB-19 = test system: SNB-19
UO-31 = test system: UO-31
K562 = test system: K562
SF-539 = test system: SF-539
SK-MEL-5 = test system: SK-MEL-5
UACC-62 = test system: UACC-62
UACC-257 = test system: UACC-257
HCT-116 = test system: HCT-116
OVCAR-4 = test system: OVCAR-4
RXF 393 = test system: RXF 393

Measured: GI50

COc1ccc(/C(Cl)=C(\CN(C)C)c2ccc(OC)c(OC)c2)cc1OC
inactive: OVCAR-8 > 100 µM | LOX IMVI > 100 µM | NCI-H23 > 100 µM | RPMI-8226 > 100 µM | TK-10 > 100 µM | NCI-H226 > 100 µM | Malme-3M > 100 µM | MOLT-4 > 100 µM | SK-OV-3 > 100 µM | CCRF-CEM > 100 µM | SNB-19 > 100 µM | UO-31 > 100 µM | K562 > 100 µM | SF-539 > 100 µM | SK-MEL-5 > 100 µM | UACC-62 > 100 µM

COc1cc([N+](=O)[O-])ccc1N1C(=O)C2c3[nH]c4ccccc4c3C3CCC(C(C)(C)C)CC3C2C1=O (stereo not given)
inactive: OVCAR-8 29 µM | LOX IMVI 18.5 µM | UACC-257 76.4 µM | NCI-H23 31 µM | RPMI-8226 > 100 µM | HCT-116 44.5 µM | TK-10 > 100 µM | NCI-H226 > 100 µM | Malme-3M > 100 µM | MOLT-4 > 100 µM | SK-OV-3 > 100 µM | CCRF-CEM 21.8 µM | UO-31 > 100 µM | SF-539 62.8 µM | SK-MEL-5 40.9 µM | UACC-62 19.6 µM | OVCAR-4 17.2 µM

Cc1cccc(C)c1NC(=O)/C(CC(=O)CC(c1ccccc1)c1c(O)c2ccccc2oc1=O)=N/O (stereo not given)
inactive: OVCAR-8 > 100 µM | LOX IMVI > 100 µM | UACC-257 > 100 µM | NCI-H23 > 100 µM | HCT-116 > 100 µM | TK-10 > 100 µM | NCI-H226 > 100 µM | MOLT-4 > 100 µM | SK-OV-3 > 100 µM | CCRF-CEM > 100 µM | SNB-19 > 100 µM | UO-31 > 100 µM | SF-539 > 100 µM | RXF 393 > 100 µM | SK-MEL-5 > 100 µM | UACC-62 > 100 µM | OVCAR-4 > 100 µM

CC1(C)OCC(CO)(CO)CO1
inactive: OVCAR-8 > 100 µM | LOX IMVI > 100 µM | UACC-257 > 100 µM | NCI-H23 > 100 µM | HCT-116 > 100 µM | TK-10 > 100 µM | NCI-H226 > 100 µM | MOLT-4 > 100 µM | SK-OV-3 > 100 µM | CCRF-CEM > 100 µM | SNB-19 > 100 µM | UO-31 > 100 µM | K562 > 100 µM | RXF 393 > 100 µM | SK-MEL-5 > 100 µM | OVCAR-4 > 100 µM

COc1ccc(C(=O)C2CC3(CCC2(O)c2ccc(OC)cc2)CC(=O)Nc2ccccc2C3=O)cc1 (stereo not given)
inactive: OVCAR-8 > 100 µM | LOX IMVI > 100 µM | UACC-257 > 100 µM | NCI-H23 > 100 µM | HCT-116 28.4 µM | TK-10 > 100 µM | NCI-H226 > 100 µM | Malme-3M > 100 µM | SK-OV-3 > 100 µM | CCRF-CEM 4.38 µM | UO-31 18.1 µM | K562 > 100 µM | SF-539 > 100 µM | RXF 393 > 100 µM | SK-MEL-5 4.98 µM | UACC-62 > 100 µM | OVCAR-4 1.55 µM

Oc1nc2ccccc2c2oc3ccccc3c12
inactive: OVCAR-8 > 100 µM | UACC-257 > 100 µM | NCI-H23 > 100 µM | TK-10 > 100 µM | NCI-H226 > 100 µM | Malme-3M > 100 µM | MOLT-4 > 100 µM | SK-OV-3 76 µM | CCRF-CEM > 100 µM | SNB-19 > 100 µM | UO-31 > 100 µM | K562 > 100 µM | SF-539 > 100 µM | RXF 393 82 µM | SK-MEL-5 > 100 µM | UACC-62 > 100 µM | OVCAR-4 > 100 µM
